Data as given in patent US9868738B2, “Diazine-fused amidines as BACE inhibitors, compositions, and their use” (Merck Sharp & Dohme Corp., priority 2014, dated 2018).

What was measured:
[1] = target: soluble human BACE1 catalytic domain (Homo sapiens (Human), UniProt P56817); assay: BACE-1 Ki Assay (BACE-1 HTRF FRET Assay); assay type: biochemical; conditions: Ki calculated from IC50 using the Cheng-Prusoff equation; QSY7-APPswe-Eu substrate 200 nM, pH 5.0
Protocol: In another embodiment, the compounds of the invention comprise the example compounds shown in the table below, or a tautomer thereof, or a pharmaceutically acceptable salt of said compound or said tautomer. Examples 2 to 42 were prepared using the method similar to Ex. 1. Example 44 to 51 were synthesized using the method similar to Ex. 43. BACE-1 values reported in this table were measured using BACE-1 Ki Assay (BACE-1 HTRF FRET Assay).
• Reagents: Na^+-Acetate pH 5.0; 1% Brij-35; Glycerol; Dimethyl Sulfoxide (DMSO); Recombinant human soluble BACE1 catalytic domain (>95% pure); APP Swedish mutant peptide substrate (QSY7-APP^swe-Eu): QSY7-EISEVNLDAEFC-Europium-amide.
A homogeneous time-resolved FRET assay can be used to determine IC50 values for inhibitors of the soluble human BACE1 catalytic domain. This assay monitors the increase of 620 nm fluorescence that resulted from BACE1 cleavage of an APPswedish APP^swe mutant peptide FRET substrate (QSY7-EISEVNLDAEFC-Europium-amide). This substrate contains an N-terminal QSY7 moiety that serves as a quencher of the C-terminal Europium fluorophore (620 nm Em). In the absence of enzyme activity, 620 nm fluorescence is low in the assay and increased linearly over 3 hours in the presence of uninhibited BACE1 enzyme. Inhibition of BACE1 cleavage of the QSY7-APP^swe-Eu substrate by inhibitors is manifested as a suppression of 620 nm fluorescence.
Varying concentrations of inhibitors at 3× the final desired concentration in a volume of 10 ul are preincubated with purified human BACE1 catalytic domain (3 nM in 10 μl) for 30 minutes at 30° C. in reaction buffer containing 20 mM Na-Acetate pH 5.0, 10% glycerol, 0.1% Brij-35 and 7.5% DSMO. Reactions are initiated by addition of 10 μl of 600 nM QSY7-APP^swe-Eu substrate (200 nM final) to give a final reaction volume of 30 μl in a 384 well Nunc HTRF plate. The reactions are incubated at 30° C. for 1.5 hours. The 620 nm fluorescence is then read on a Rubystar HTRF plate reader (BMG Labtechnologies) using a 50 millisecond delay followed by a 400 millisecond acquisition time window. Inhibitor IC50 values are derived from non-linear regression analysis of concentration response curves. Ki values are then calculated from IC50 values using the Cheng-Prusoff equation using a previously determined […] of 8 μM for the QSY7-APP^swe-Eu substrate at BACE1.

[2] = target: purified human autoBACE-2 (Homo sapiens (Human), UniProt Q9Y5Z0); assay: BACE-2 Assay (BACE-HTRF assay); assay type: biochemical; conditions: Ki calculated from IC50 using the Cheng-Prusoff equation; QSY7-EISEVNLDAEFC-Eu-amide substrate 200 nM, pH 5.0
Chain of purified human autoBACE-2 (Q9Y5Z0 63-473 limits assumed): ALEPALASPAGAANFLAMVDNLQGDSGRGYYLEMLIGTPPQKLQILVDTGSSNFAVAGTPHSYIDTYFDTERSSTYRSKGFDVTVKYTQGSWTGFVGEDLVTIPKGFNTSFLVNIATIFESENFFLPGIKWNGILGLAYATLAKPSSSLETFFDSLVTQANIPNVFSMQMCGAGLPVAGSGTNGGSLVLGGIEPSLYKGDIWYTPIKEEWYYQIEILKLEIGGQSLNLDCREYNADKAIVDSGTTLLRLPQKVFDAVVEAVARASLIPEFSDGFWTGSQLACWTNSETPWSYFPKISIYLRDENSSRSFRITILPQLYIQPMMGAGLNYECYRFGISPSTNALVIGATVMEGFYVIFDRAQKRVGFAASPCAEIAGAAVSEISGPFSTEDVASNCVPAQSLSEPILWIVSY
Protocol: Inhibitor IC50s at purified human autoBACE-2 are determined in a time-resolved endpoint proteolysis assay that measures hydrolysis of the QSY7-EISEVNLDAEFC-Eu-amide FRET peptide substrate (BACE-HTRF assay). BACE-mediated hydrolysis of this peptide results in an increase in relative fluorescence (RFU) at 620 nm after excitation with 320 nm light. Inhibitor compounds, prepared at 3× the desired final concentration in 1×BACE assay buffer (20 mM sodium acetate pH 5.0, 10% glycerol, 0.1% Brij-35) supplemented with 7.5% DMSO are pre-incubated with an equal volume of autoBACE-2 enzyme diluted in 1×BACE assay buffer (final enzyme concentration 1 nM) in black 384-well NUNC plates for 30 minutes at 30° C. […] DMSO is present at […] final concentration in the assay. Following laser excitation of sample wells at 320 nm, the fluorescence signal at 620 nm is collected for 400 ms following a 50 μs delay on a RUBYstar HTRF plate reader (BMG Labtechnologies). Raw RFU data is normalized to maximum (1.0 nM BACE/DMSO) and minimum (no enzyme/DMSO) RFU values. IC50s are determined by nonlinear regression analysis (sigmoidal dose response, variable slope) of percent inhibition data with minimum and maximum values set to 0 and 100 percent respectively. Similar IC50s are obtained when using raw RFU data. The Ki values are calculated from the IC50 using the Cheng-Prusoff equation.

Chain of soluble human BACE1 catalytic domain (P56817 75-416): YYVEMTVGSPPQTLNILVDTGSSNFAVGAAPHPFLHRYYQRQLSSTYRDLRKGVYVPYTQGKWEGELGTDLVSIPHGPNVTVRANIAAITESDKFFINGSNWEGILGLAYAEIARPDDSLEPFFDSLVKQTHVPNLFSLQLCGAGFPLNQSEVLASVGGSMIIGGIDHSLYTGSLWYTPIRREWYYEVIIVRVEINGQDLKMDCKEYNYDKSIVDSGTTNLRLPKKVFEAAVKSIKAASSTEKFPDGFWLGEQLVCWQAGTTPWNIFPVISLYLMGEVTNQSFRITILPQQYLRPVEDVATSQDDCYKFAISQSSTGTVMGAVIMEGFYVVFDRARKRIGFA

Ki [1]: 771 nM
Ki [2]: 3460 nM
SMILES: C[C@@]1(c2cc(-c3cncnc3)ccc2F)Cc2ncncc2C(=N)N1 [Example 7, (7S)-7-(2-fluoro-5-pyrimidin-5-ylphenyl)-7-methyl-7,8-dihydro-pyrido[4,3-d]pyrimidin-5(6H)-imine]
